Assays:
[1] = Stability of the complexes in blood serum (UV-vis); format: in vitro ADME, human; conditions: blood serum four-time diluted with PBS'; after 24 h
From the text: (§1) The stability of the RhCp* and RuCym complexes of HQNO2-L-Pro was also monitored in Roswell Park Memorial Institute (RPMI) medium used for the in vitro cell studies (in the case of Colo cells), and in blood serum using UV-vis and ^1H NMR spectroscopy. […] Despite these changes, the dissociation of the complexes is not likely as the liberation of the unbound ligand was not observed; thus, the complexes most probably form ternary complexes with the components of the serum or the medium. In order to further study the reactivity of these complexes with bioligands, their interaction with human serum albumin (HSA) and selected oligopeptides (also used as binding models of HSA) was assayed.
Stock and sample solutions were prepared using Milli-Q water. […] Their concentrations were determined by complexometry via the EDTA complexes. […] The concentration of the Fe(II) stock solution was determined by permanganometric titrations under acidic conditions. […] Residual citrate content of HSA was removed by repeated ultrafiltration of the protein stock solution, and its concentration was calculated from its UV absorption: λ280nm (HSA) = 36,850 M^−1 cm^−1 [51]. […]

[2] = Complex formation kinetics (UV-vis, tandem cuvette); format: physicochemical; conditions: 50 μM triaqua complex + 50 μM ligand
Protocol: The complex formation kinetics for the RhCp* and RuCym complexes was also assayed and compared at pH 1 and 4 (Figure S20). UV-vis spectral changes were followed in time after the triaqua complex [M(arene)(H2O)3]^2+ (50 μM) and the ligand (50 μM) were mixed in a tandem cuvette. The equilibrium was reached much faster in the case of the RhCp* complex (~5 min at pH 1, ~1 min at pH 4), as compared to the RuCym complex (~7 h at pH 1, ~45 min at pH 4).

[3] = Stability of the isolated complexes in aqueous solution at pH 7.4 (UV-vis over 72 h); format: physicochemical
Protocol: The stability of the isolated RhCp* and RuCym complexes in aqueous solution at pH 7.4 was assayed via recording the UV-vis spectra over 72 h (Figure S18). […] Then, the behaviour of the complexes was monitored between pH 2 and 12 by ^1H NMR spectroscopy (see representative spectra of the RuCym complex in Figure 8) in chloride-free medium, as this halide ion can act as a competitor ligand. There was no indication for the dissociation of the complexes (i.e., liberation of unbound ligand or metal precursor) in the studied pH range or even at pH 1 (Figure S19), showing their fairly high stability in solution.
An Agilent Cary 8454 diode array spectrophotometer (Santa Clara, CA, USA) was used to obtain UV-vis spectra in the wavelength range 200–1000 nm, while spectra were recorded for the Fe(II)-containing samples using an Avantes (Avantes B.V., Apeldoorn, The Nederlands) AvaSpec-ULS2048CL-EVO spectrometer with an AvaLight-DHc light source and FDP-7UVIR200-2-VAR transmission dip probe. The titrations for the Fe(II)-containing samples were performed in a laboratory glove box (GP(Campus), Jacomex) (O2 content ≤ 1 ppm). The path length (ℓ) was 1 cm in most cases (the actual ℓ is always indicated in the legends of the figures). The concentrations of the ligands and complexes were between 40 and 200 µM, and 0.2 M KNO3 for the organometallic complexes or 0.1 M KCl for the Fe(II/III), Cu(II), and Zn(II) complexes were used to adjust the constant ionic strength. For HSA containing samples, complex concentrations were 50 µM, and 0.5, and 2 equiv. biomolecules were added for kinetic studies, respectively. For HSA model containing samples, complex concentrations were 50 µM, and the model concentrations were 0–150 µM and 0–500 µM, respectively, and the pH was 7.4 (PBS’). Spectra were always background and baseline corrected. The computer program HypSpec was used to obtain stability constants. Hydrolysis constants of the Fe(III), Fe(II), RuCym, and RhCp* species were included in the speciation models (see Table S4 with the data taken from References).

[4] = Stability of the complexes in RPMI medium (UV-vis, 1H NMR); format: physicochemical; conditions: compared with serum
From the text: as §1

| UV-vis spectral changes in aqueous solution ([3]; after 48 h) | Compound | changes of the charge-transfer bands (400–500 nm) on incubation in serum [1] | time to reach equilibrium of complex formation ([2]; pH 1) | time to reach equilibrium of complex formation ([2]; pH 4) | UV-vis spectral changes in aqueous solution ([3]; first 24 h) | spectral changes on incubation in RPMI medium [4] |
| --- | --- | --- | --- | --- | --- | --- |
| minor spectral change | CC1=C(C)[C](C)([Rh]([Cl])[O]c2c(C[NH+]3CCC[C@H]3C(=O)O)cc([N+](=O)[O-])c3cccnc23)C(C)=C1C.[Cl-] [RhCp*-HQNO2-L-Pro, [RhCp*(HQNO2-L-Pro)Cl]Cl] | minor changes | ~ 5 min | ~ 1 min | no measurable changes | more significant |
|  | Cc1ccc(C(C)C)cc1.O=C(O)[C@@H]1CCC[NH+]1Cc1cc([N+](=O)[O-])c2ccc[n+]3c2c1[O][Ru-]3[Cl].[Cl-] [RuCym-HQNO2-L-Pro, [RuCym(HQNO2-L-Pro)Cl]Cl] | minor changes | ~ 7 h | ~ 45 min | no measurable changes | more significant |

From PMC9820345, “Metal Complexes of a 5-Nitro-8-Hydroxyquinoline-Proline Hybrid with Enhanced Water Solubility Targeting Multidrug Resistant Cancer Cells” (International Journal of Molecular Sciences, 2022)
